Assay: molar heat capacity at constant volume; wn = mass fraction of the nth substance listed
Conditions: Liquid, Vacuum adiabatic calorimetry, w2 = 0.4981

FC(F)C(F)(F)F [pentafluoroethane] + FCF
Conditions	molar heat capacity at constant volume [J/K/mol]
357.15 K, 9042 kPa	82.22
357.15 K, 9048 kPa	82.43
357.15 K, 16243 kPa	68.41
357.15 K, 16254 kPa	69.93
357.15 K, 16277 kPa	69.42
358.15 K, 9284 kPa	81.71
358.15 K, 9290 kPa	83.6
358.15 K, 16617 kPa	69.79
358.15 K, 16628 kPa	70.73
358.15 K, 16652 kPa	69.13
359.15 K, 9527 kPa	82.29
359.15 K, 9532 kPa	83.09
359.15 K, 16990 kPa	69.86
359.15 K, 17003 kPa	71.24
359.15 K, 17027 kPa	67.9
360.15 K, 9770 kPa	82.07
360.15 K, 9775 kPa	82.29
360.15 K, 17365 kPa	69.42
360.15 K, 17377 kPa	68.55
360.15 K, 17401 kPa	69.64
361.15 K, 10013 kPa	81.2
361.15 K, 10019 kPa	82.73
361.15 K, 17739 kPa	70.08
361.15 K, 17752 kPa	71.46
361.15 K, 17776 kPa	68.48
362.15 K, 10256 kPa	82.65
362.15 K, 10262 kPa	83.31
362.15 K, 18113 kPa	69.42
362.15 K, 18127 kPa	71.17
362.15 K, 18151 kPa	69.06
363.15 K, 10501 kPa	80.69
363.15 K, 10506 kPa	82.22
363.15 K, 18487 kPa	70.59
363.15 K, 18501 kPa	69.57
363.15 K, 18526 kPa	69.79
364.15 K, 10745 kPa	81.78
364.15 K, 10751 kPa	81.56
364.15 K, 18862 kPa	69.2
364.15 K, 18876 kPa	70.8
364.15 K, 18899 kPa	68.91
365.15 K, 10990 kPa	81.49
365.15 K, 10996 kPa	82.29
365.15 K, 19236 kPa	69.57
365.15 K, 19250 kPa	69.79
365.15 K, 19274 kPa	70.08
366.15 K, 11235 kPa	80.04
366.15 K, 11241 kPa	81.78
366.15 K, 19610 kPa	70
366.15 K, 19625 kPa	70.22
366.15 K, 19649 kPa	68.99
367.15 K, 11480 kPa	81.49
367.15 K, 11486 kPa	81.93
367.15 K, 19985 kPa	69.06
367.15 K, 20000 kPa	69.86
367.15 K, 20025 kPa	68.48
368.15 K, 11726 kPa	81.42
368.15 K, 11732 kPa	82.07
368.15 K, 20360 kPa	69.35
368.15 K, 20375 kPa	69.71
368.15 K, 20400 kPa	68.77
369.15 K, 11972 kPa	79.89
369.15 K, 11979 kPa	82.73
369.15 K, 20734 kPa	69.42
369.15 K, 20750 kPa	70
369.15 K, 20776 kPa	68.7
370.15 K, 12219 kPa	80.69
370.15 K, 12225 kPa	80.76
370.15 K, 21109 kPa	70.8
370.15 K, 21125 kPa	69.35
370.15 K, 21150 kPa	69.2
371.15 K, 12465 kPa	80.25
371.15 K, 12472 kPa	82.07
371.15 K, 21484 kPa	70.3
371.15 K, 21500 kPa	71.82
371.15 K, 21525 kPa	68.55
372.15 K, 12712 kPa	80.11
372.15 K, 12719 kPa	81.78
372.15 K, 21859 kPa	70.44
372.15 K, 21875 kPa	69.64
372.15 K, 21901 kPa	69.42
373.15 K, 12959 kPa	80.91
373.15 K, 12966 kPa	82.43
373.15 K, 22234 kPa	69.86
373.15 K, 22250 kPa	71.17
373.15 K, 22277 kPa	69.57
374.15 K, 13207 kPa	80.11
374.15 K, 13213 kPa	81.71
374.15 K, 22609 kPa	70.59
374.15 K, 22625 kPa	70.37
374.15 K, 22654 kPa	69.2
375.15 K, 13454 kPa	80.04
375.15 K, 13461 kPa	81.85
375.15 K, 22984 kPa	71.68
375.15 K, 23000 kPa	72.33
375.15 K, 23029 kPa	70.15
376.15 K, 13702 kPa	80.76
376.15 K, 13709 kPa	82.87
376.15 K, 23359 kPa	71.6
376.15 K, 23375 kPa	71.02
376.15 K, 23406 kPa	70.08
377.15 K, 13950 kPa	82.14
377.15 K, 13957 kPa	81.34
377.15 K, 23734 kPa	71.24
377.15 K, 23750 kPa	71.6
377.15 K, 23780 kPa	70.88
378.15 K, 14198 kPa	80.25
378.15 K, 14205 kPa	80.18
378.15 K, 24109 kPa	72.04
378.15 K, 24125 kPa	71.82
378.15 K, 24155 kPa	70.51
379.15 K, 14447 kPa	81.2
379.15 K, 14454 kPa	81.85
379.15 K, 24484 kPa	72.04
379.15 K, 24500 kPa	70.95
379.15 K, 24531 kPa	70.22
380.15 K, 14696 kPa	80.47
380.15 K, 14702 kPa	80.84
380.15 K, 24858 kPa	72.11
380.15 K, 24875 kPa	71.6
380.15 K, 24906 kPa	70.88
381.15 K, 14944 kPa	80.54
381.15 K, 14951 kPa	81.93
381.15 K, 25233 kPa	72.33
381.15 K, 25250 kPa	71.6
381.15 K, 25282 kPa	68.91
382.15 K, 15194 kPa	81.2
382.15 K, 15200 kPa	81.2
382.15 K, 25608 kPa	70.51
382.15 K, 25625 kPa	71.75
382.15 K, 25657 kPa	69.64
383.15 K, 15443 kPa	80.18
383.15 K, 15449 kPa	81.13
383.15 K, 25983 kPa	72.33
383.15 K, 26000 kPa	71.75
383.15 K, 26033 kPa	69.93
384.15 K, 15692 kPa	82.29
384.15 K, 15699 kPa	80.62
384.15 K, 26358 kPa	72.69
384.15 K, 26375 kPa	72.84
384.15 K, 26408 kPa	70
385.15 K, 15942 kPa	79.6
385.15 K, 15948 kPa	82.58
385.15 K, 26733 kPa	72.55
385.15 K, 26750 kPa	72.4
385.15 K, 26784 kPa	69.28
386.15 K, 16192 kPa	81.2
386.15 K, 16198 kPa	83.09
386.15 K, 27107 kPa	72.4
386.15 K, 27125 kPa	72.77
386.15 K, 27159 kPa	68.48
387.15 K, 16442 kPa	79.31
387.15 K, 16448 kPa	81.34
387.15 K, 27482 kPa	73.57
387.15 K, 27500 kPa	73.57
387.15 K, 27533 kPa	70.66
388.15 K, 16692 kPa	80.62
388.15 K, 16698 kPa	82.51
388.15 K, 27856 kPa	73.71
388.15 K, 27874 kPa	73.71
388.15 K, 27907 kPa	69.06
389.15 K, 16942 kPa	80.76
389.15 K, 16948 kPa	82.07
389.15 K, 28231 kPa	74.08
389.15 K, 28249 kPa	73.86
389.15 K, 28282 kPa	70.22
390.15 K, 17192 kPa	80.84
390.15 K, 17198 kPa	83.74
390.15 K, 28605 kPa	74.08
390.15 K, 28624 kPa	74.73
390.15 K, 28657 kPa	70.3
391.15 K, 17442 kPa	81.05
391.15 K, 17448 kPa	83.67
391.15 K, 28979 kPa	73.78
391.15 K, 28998 kPa	72.77
391.15 K, 29032 kPa	70.44
392.15 K, 17692 kPa	81.05
392.15 K, 17698 kPa	81.34
392.15 K, 29354 kPa	72.77
392.15 K, 29373 kPa	71.31
392.15 K, 29407 kPa	68.84
393.15 K, 17943 kPa	79.38
393.15 K, 17949 kPa	81.27
393.15 K, 29728 kPa	74
393.15 K, 29782 kPa	72.19
394.15 K, 18193 kPa	82
394.15 K, 18199 kPa	80.84
395.15 K, 18444 kPa	80.18
395.15 K, 18450 kPa	83.89
396.15 K, 18701 kPa	80.62
397.15 K, 18951 kPa	82.36

From the NIST ThermoML archive (doi:10.1007/s10765-010-0766-0)
